Structures are written as SMILES. Structures can show the parent of a compound that is named as a salt.

Format in all cases: cell-based
What all share (settings): ratio to NECA

The target of one assay is T1, adenosine 2a receptor (Homo sapiens, UniProt P29274).
T1 construct: expressed in transfected cells; host or cells: CHO cells
Description: Agonist activity, CHO cells transfected with human adenosine receptor and CRE-SPAP reporter; basal cAMP (A2a). The method, then: (§1) (1) Agonist activity against adenosine 2a, adenosine 1 and adenosine 3 receptor subtypes.
(§2) Agonist selectivity of compounds against other human adenosine receptors is determined using Chinese hamster ovary (CHO) cells transfected with the gene for the relevant human adenosine receptor following a method based on that of Castanon and Spevak, 1994. The CHO cells are also transfected with cyclic AMP response elements promoting the gene for secreted placental alkaline phosphatase (SPAP) (Wood, 1995). The effect of test compounds may be determined by their effects on basal levels of CAMP (A2a) or on forskolin-enhanced cAMP (A1 and A3) as reflected by changes in levels of SPAP. EC50 values for compounds may then be determined as a ratio to that of the non-selective agonist N-ethyl carboxamide adenosine (NECA).

The target in the next assay is T2, adenosine 3 receptor (Homo sapiens, UniProt P0DMS8).
T2 construct: expressed in transfected cells; host or cells: CHO cells
T2 sequence (P0DMS8 1-318): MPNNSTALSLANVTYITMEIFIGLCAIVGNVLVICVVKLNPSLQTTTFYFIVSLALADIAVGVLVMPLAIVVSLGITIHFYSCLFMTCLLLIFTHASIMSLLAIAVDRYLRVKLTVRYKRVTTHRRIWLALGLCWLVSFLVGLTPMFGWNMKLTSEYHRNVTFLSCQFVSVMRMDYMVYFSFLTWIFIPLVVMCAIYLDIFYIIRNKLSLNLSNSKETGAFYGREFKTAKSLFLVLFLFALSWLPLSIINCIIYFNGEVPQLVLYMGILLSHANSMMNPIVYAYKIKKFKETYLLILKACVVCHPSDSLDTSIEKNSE
Description: Agonist activity, CHO cells transfected with human adenosine receptor and CRE-SPAP reporter; forskolin-enhanced cAMP (A3). The method, then: as §1, §2

Another assay addresses T3, adenosine 1 receptor (Homo sapiens, UniProt P30542).
T3 construct: expressed in transfected cells; host or cells: CHO cells
T3 sequence (P30542 1-326): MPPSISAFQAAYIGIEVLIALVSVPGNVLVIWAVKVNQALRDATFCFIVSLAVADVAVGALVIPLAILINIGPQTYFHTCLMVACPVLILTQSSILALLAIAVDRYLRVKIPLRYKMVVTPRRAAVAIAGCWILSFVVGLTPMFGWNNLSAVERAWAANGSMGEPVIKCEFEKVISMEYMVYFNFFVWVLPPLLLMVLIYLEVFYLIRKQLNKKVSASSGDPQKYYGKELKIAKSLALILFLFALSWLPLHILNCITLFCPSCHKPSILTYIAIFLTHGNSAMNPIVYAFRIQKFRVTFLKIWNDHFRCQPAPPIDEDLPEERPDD
Description: Agonist activity, CHO cells transfected with human adenosine receptor and CRE-SPAP reporter; forskolin-enhanced cAMP (A1). The protocol: as §1, §2

[1] abbreviates: * data are minimum values since preparation was found, after testing, to contain an inactive impurity.

T1 sequence (P29274 whole entry): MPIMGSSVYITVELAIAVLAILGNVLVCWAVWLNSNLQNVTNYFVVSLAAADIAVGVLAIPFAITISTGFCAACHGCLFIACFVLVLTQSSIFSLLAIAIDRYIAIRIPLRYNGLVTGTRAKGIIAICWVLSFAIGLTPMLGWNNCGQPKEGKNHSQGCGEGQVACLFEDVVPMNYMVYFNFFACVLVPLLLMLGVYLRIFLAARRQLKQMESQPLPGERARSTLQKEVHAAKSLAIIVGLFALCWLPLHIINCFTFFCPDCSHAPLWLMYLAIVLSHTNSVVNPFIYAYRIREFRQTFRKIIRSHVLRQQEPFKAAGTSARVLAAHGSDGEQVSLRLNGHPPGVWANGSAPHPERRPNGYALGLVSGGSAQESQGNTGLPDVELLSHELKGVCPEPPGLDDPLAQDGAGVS

For `CCC(CC)Nc1nc(NC(CO)C(C)C)nc2c1ncn2C1OC(c2nc(C)no2)C(O)C1O` [Example 28, (2R,3R,4S,5S)-2-[6-(1-Ethyl-propylamino)-2-(1S-hydroxymethyl-2-methyl-propylamino)-purin-9-yl]-5-(3-methyl-[1,2,4]oxadiazol-5-yl)-tetrahydro-furan-3,4-diol formate], the “A2a, EC50 as a ratio of that of NECA” value on adenosine 2a receptor (setting [1]) worked out at 5.49. The “A3, EC50 as a ratio of that of NECA” value at adenosine 3 receptor (setting [1]) was more than 284. The “A1, EC50 as a ratio of that of NECA” value at adenosine 1 receptor (setting [1]) is reported as more than 5263.
Take `CCc1noc(C2OC(n3cnc4c(NCCC5CCCCC5)nc(NCCc5cn(C)cn5)nc43)C(O)C2O)n1.O=CO.O=CO` [Example 47, (2R,3R,4S,5S)-2-{6-(2-cyclohexylethylamino)-2-[2-(1-methyl-1H-imidazol4-yl)ethylamino]-purin-9-yl}-5-(3-ethyl-[1,2,4]oxadiazol-5-yl)-tetrahydro-furan-3,4-diol diformate]: at adenosine 2a receptor (CHO cells, SPAP readout), the “A2a, EC50 as a ratio of that of NECA” value stood at 6.93. Further, the “A3, EC50 as a ratio of that of NECA” value on adenosine 3 receptor (CHO cells, SPAP readout) is given as more than 165. The “A1, EC50 as a ratio of that of NECA” value at adenosine 1 receptor (CHO cells, SPAP readout) is on record as 4993.28.
As to `CCC(CC)Nc1nc(N[C@H]2CC[C@H](N)CC2)nc2c1ncn2[C@@H]1O[C@H](c2nc(C)no2)[C@@H](O)[C@H]1O.O=CO` [Example 16, (2R,3R,4S,5S)-2-[2-(trans-4-Amino-cyclohexylamino)-6-(1-ethyl-propylamino)-purin-9-yl]-5-(3-methyl-[1,2,4]oxadiazol-5-yl)tetrahydro-furan-3,4-diol formate], the “A2a, EC50 as a ratio of that of NECA” value at adenosine 2a receptor (setting [1]) worked out at 11.87. Further, at adenosine 3 receptor (setting [1]), the “A3, EC50 as a ratio of that of NECA” value is listed as more than 362. The “A1, EC50 as a ratio of that of NECA” value at adenosine 1 receptor (setting [1]) is more than 6244.
On to `CCC(CC)Nc1nc(NCCN2CCOCC2)nc2c1ncn2C1OC(c2nc(C3CC3)no2)C(O)C1O.O=CO.O=CO` (stereo not drawn) [Example 36], for which the “A2a, EC50 as a ratio of that of NECA” value at adenosine 2a receptor (CHO cells, SPAP readout) is 20.13. Besides, the “A3, EC50 as a ratio of that of NECA” value at adenosine 3 receptor (CHO cells, SPAP readout) is reported as more than 194. Also, on adenosine 1 receptor (CHO cells, SPAP readout), the “A1, EC50 as a ratio of that of NECA” value is more than 9364.
The like results for `CCC(CC)Nc1nc(NCCN2CCCCC2)nc2c1ncn2C1OC(c2nc(C3CC3)no2)C(O)C1O` [Example 35, (2S,3S,4R,5R)-2-(3-Cyclopropyl-[1,2,4]oxadiazol-5-yl)-5-[6-(1-ethyl-propylamino)-2-(2-piperidin-1-yl-ethylamino)-purin-9-yl]-tetrahydro-furan-3,4-diolldiformate] were, in that order, 7.89, more than 194 and 912.1.
In the case of `Cc1noc(C2OC(n3cnc4c(N)nc(NCCc5ccccn5)nc43)C(O)C2O)n1.O=CO.O=CO` (stereo not drawn) [Example 30], at adenosine 2a receptor (setting [1]), the “A2a, EC50 as a ratio of that of NECA” value stood at 19.54. In addition, the “A3, EC50 as a ratio of that of NECA” value at adenosine 3 receptor (setting [1]) is given as more than 215. The “A1, EC50 as a ratio of that of NECA” value at adenosine 1 receptor (setting [1]) was 1460.7.
For `Cc1noc([C@H]2O[C@@H](n3cnc4c(N)nc(NCCc5cn(C)cn5)nc43)[C@H](O)[C@@H]2O)n1.O=C(O)C(F)(F)F.O=C(O)C(F)(F)F` [Example 7] the same measures were 11.02, more than 117 and 1013.4.
Regarding `CCC(CC)Nc1nc(NCCc2cn(C)cn2)nc2c1ncn2[C@@H]1O[C@H](c2nc(C)no2)[C@@H](O)[C@H]1O.O=CO` [Example 14, (2R,3R,4S,5S)-2-{6-(1-Ethyl-propylamino)-2-[2-(1-methyl-1H-imidazol-4-yl)-ethylamino]-purin-9-yl}-5-(3-methyl-[1,2,4]oxadiazol-5-yl)-tetrahydro-furan-3,4-diol formate], on adenosine 2a receptor (CHO cells, SPAP readout), the “A2a, EC50 as a ratio of that of NECA” value is on record as 0.66. The “A3, EC50 as a ratio of that of NECA” value on adenosine 3 receptor (CHO cells, SPAP readout) is more than 239. For the same compound, the “A1, EC50 as a ratio of that of NECA” value at adenosine 1 receptor (CHO cells, SPAP readout) was more than 4587.
For the compound `Cc1noc(C2OC(n3cnc4c(N)nc(NC(CO)Cc5ccccc5)nc43)C(O)C2O)n1` [Example 12, (2R,3R,4S,5S)-2-[6-Amino-2-(1S-hydroxymethyl-2-phenyl-ethylamino)-purin-9-yl]-5-(3-methyl-[1,2,4]oxadiazol-5-yl)-tetrahydro-furan-3,4-diol formate], at adenosine 2a receptor (setting [1]), the “A2a, EC50 as a ratio of that of NECA” value came out at 4.54. The “A3, EC50 as a ratio of that of NECA” value on adenosine 3 receptor (setting [1]) is more than 302. Further, the “A1, EC50 as a ratio of that of NECA” value on adenosine 1 receptor (setting [1]) is on record as 1863.5.
In the case of `CCc1noc(C2OC(n3cnc4c(NCC(c5ccccc5)c5ccccc5)nc(NC(CO)C(C)C)nc43)C(O)C2O)n1` [Example 5, (2R,3R,4S,5S)-2-[6-(2,2-Diphenyl-ethylamino)-2-(1S-hydroxymethyl-2-methyl-propylamino)-purin-9-yl]-5-(3-ethyl-[1,2,4]oxadiazol-5-yl)-tetrahydro-furan-3,4-diol formate], the “A2a, EC50 as a ratio of that of NECA” value at adenosine 2a receptor (CHO cells, SPAP readout) is 6.12. Besides, on adenosine 3 receptor (CHO cells, SPAP readout), the “A3, EC50 as a ratio of that of NECA” value is more than 309. Moreover, the “A1, EC50 as a ratio of that of NECA” value on adenosine 1 receptor (CHO cells, SPAP readout) amounted to 1391.2.
For `CCc1noc([C@H]2O[C@@H](n3cnc4c(NC(CC)CC)nc(NC5CCCC5)nc43)[C@H](O)[C@@H]2O)n1.O=CO` [Example 23, (2R,3R,4S,5S)-2-[2-Cyclopentylamino-6-(1-ethyl-propylamino)-purin-9-yl]-5-(3-ethyl-[1,2,4]oxadiazol-5-yl)-tetrahydro-furan-3,4-diol formate] the same measures were 12.72, more than 163 and 17.02.
As to `CCc1noc([C@H]2O[C@@H](n3cnc4c(NCC(c5ccccc5)c5ccccc5)nc(NCCN5CCOCC5)nc43)[C@H](O)[C@@H]2O)n1.O=CO` [Example 31, (2R,3R,4S,5S)-2-[6-(2,2-Diphenyl-ethylamino)-2-(2-morpholin-4-yl-ethylamino)-purin-9-yl]-5-(3-ethyl-[1,2,4]oxadiazol-5-yl)-tetrahydro-furan-3,4-diol formate], the “A2a, EC50 as a ratio of that of NECA” value on adenosine 2a receptor (CHO cells, SPAP readout) was 30.6. Moreover, on adenosine 3 receptor (CHO cells, SPAP readout), the “A3, EC50 as a ratio of that of NECA” value is given as more than 262. Also, the “A1, EC50 as a ratio of that of NECA” value on adenosine 1 receptor (CHO cells, SPAP readout) was determined as 6452.
For `CCc1noc([C@H]2O[C@@H](n3cnc4c(NCCc5ccccc5)nc(NCCc5cn(C)cn5)nc43)[C@H](O)[C@@H]2O)n1.O=CO.O=CO` [Example 46] the same measures were 0.90, more than 165 and 3560.13.
For the compound `CCC(CC)Nc1nc(NC2CCNC2)nc2c1ncn2C1OC(c2nc(C)no2)C(O)C1O` [Example 26, (2R,3R,4S,5S)-2-[6-(1-Ethyl-propylamino)-2-(pyrrolidin-3R-ylamino)-purin-9-yl]-5-(3-methyl-[1,2,4]oxadiazol-5-yl)-tetrahydro-furan-3,4-diol formate], the “A2a, EC50 as a ratio of that of NECA” value on adenosine 2a receptor (setting [1]) amounted to 5.18. Moreover, on adenosine 3 receptor (setting [1]), the “A3, EC50 as a ratio of that of NECA” value is more than 284. Besides, at adenosine 1 receptor (setting [1]), the “A1, EC50 as a ratio of that of NECA” value is given as more than 5264.
For `CCC(CC)Nc1nc(NCCN2CCCCC2)nc2c1ncn2[C@@H]1O[C@H](c2nc(C)no2)[C@@H](O)[C@H]1O.O=CO` [Example 18, (2R,3R,4S,5S)-2-[6-(1-Ethyl-propylamino)-2-(2-piperidin-1-yl-ethylamino)-purin-9-yl]-5-(3-methyl-[1,2,4]oxadiazol-5-yl)-tetrahydro-furan-3,4-diol formate] the same measures were 8.16, more than 314 and more than 6244.
The like results for `CCC(CC)Nc1nc(NCCN2CCOCC2)nc2c1ncn2[C@@H]1O[C@H](c2nc(C)no2)[C@@H](O)[C@H]1O.O=CO` [Example 6, (2R,3R,4S,5S)-2-[6-(1-Ethyl-propylamino)-2-(2-morpholin-4-yl-ethylamino)-purin-9-yl]-5-(3-methyl-[1,2,4]oxadiazol-5-yl)-tetrahydro-furan-3,4-diol formate] were, in that order, 41.35, more than 642 and more than 4833.
The like results for `CCc1noc(C2OC(n3cnc4c(N)nc(NCCc5ccccn5)nc43)C(O)C2O)n1.O=CO.O=CO` (stereo not drawn) [Example 8] were, in that order, 14.05, more than 215 and “>=3865”.
With `CCc1noc(C2OC(n3cnc4c(NCC(c5ccccc5)c5ccccc5)nc(NC5CCN(Cc6ccccc6)C5)nc43)C(O)C2O)n1` [Example 45, (2R,3R,4S,5S)-2-[2-(1-Benzyl-pyrrolidin-3S-ylamino)-6-(2,2-diphenyl-ethylamino)-purin-9-yl]-5-(3-ethyl-[1,2,4]oxadiazol-5-yl)-tetrahydro-furan-3,4-diol diformate], the “A2a, EC50 as a ratio of that of NECA” value on adenosine 2a receptor (CHO cells, SPAP readout) was 29.82. Further, the “A3, EC50 as a ratio of that of NECA” value on adenosine 3 receptor (CHO cells, SPAP readout) is recorded as more than 165. Besides, at adenosine 1 receptor (CHO cells, SPAP readout), the “A1, EC50 as a ratio of that of NECA” value is more than 3738.84.

For the origin of these results see US6610665B1 (Smithkline Beecham Corporation, priority 1998, dated 2003).
